Experimental findings from ChEMBL document CHEMBL1148902, “A cytotoxic cyclic heptapeptide from the seeds of Annona cherimola” (J Nat Prod, 2004) are described below.

The test concerns KB. Description: Cytotoxicity against human KB cells. It is filed as functional, cell-based.

Where a SMILES comes first, the peptide text is derived from it.

Take `CC[C@H](C)[C@@H]1NC(=O)[C@H](Cc2c[nH]c3ccccc23)NC(=O)[C@H](C)NC(=O)[C@H](C)NC(=O)CNC(=O)[C@@H]2CCCN2C(=O)[C@@H]2CCCN2C1=O` [CHERIMOLACYCLOPEPTIDE C] (cyclo(AAWIPPG)): the IC50 (as a rule, the midpoint of a concentration-inhibition curve) was 0.072 µM.

`COc1cccc2c1C(=O)c1c(O)c3c(c(O)c1C2=O)C[C@@](O)(C(=O)CO)C[C@@H]3O[C@H]1C[C@H](N)[C@H](O)[C@H](C)O1` [DOXORUBICIN] registered an IC50 of 0.02 µM.
